We go through 30 compounds from ChEMBL document CHEMBL1201862, “PubChem BioAssay data set” (2004).

SMILES strings stand for the structures. Active and inactive are the calls of the source. For most assays here, no stated cut-off is given here; in the data, actives have a measured EC50 and inactives only a lower limit.

The target of assay [1] is T1, Heat shock factor protein 1 (Mus musculus, UniProt P38532).
T1 sequence (P38532 whole entry): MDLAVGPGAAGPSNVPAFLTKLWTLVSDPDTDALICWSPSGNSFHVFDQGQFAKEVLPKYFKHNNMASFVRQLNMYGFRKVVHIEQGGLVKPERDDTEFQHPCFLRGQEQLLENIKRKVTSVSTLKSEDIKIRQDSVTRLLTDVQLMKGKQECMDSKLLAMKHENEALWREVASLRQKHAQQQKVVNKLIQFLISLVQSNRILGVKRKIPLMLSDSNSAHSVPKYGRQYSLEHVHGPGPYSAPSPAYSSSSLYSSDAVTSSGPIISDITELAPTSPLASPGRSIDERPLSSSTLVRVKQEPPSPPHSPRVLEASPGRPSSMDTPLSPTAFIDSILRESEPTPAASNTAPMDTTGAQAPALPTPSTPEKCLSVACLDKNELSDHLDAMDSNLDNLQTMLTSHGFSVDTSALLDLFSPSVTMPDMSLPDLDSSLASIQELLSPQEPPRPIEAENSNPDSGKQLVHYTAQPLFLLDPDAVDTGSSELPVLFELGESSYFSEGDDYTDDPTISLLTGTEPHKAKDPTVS
Description: enhancement of HSF1-driven luciferase signal – cell-based, NIH3T3, luminescence, dose retest, confirmation (AID 435004).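 Further: stress induced by proteasome inhibitor MG132 added 30 min after compound; luciferase reporter driven by HSF1 response element in NIH3T3 cells; actives raise luminescence as potentiators of the MG132 stress response.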 Type of assay: functional.

For assay [2], the target named is T1, Heat shock factor protein 1. Description: decrease of HSF1-responsive luciferase luminescence – cell-based, NIH3T3, dose retest, confirmation (AID 2382).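 Further: NIH3T3 fibroblasts with HSF1-driven luciferase reporter stressed by proteasome inhibitor MG132; luminescence from HSF1-driven luciferase expression after 8 hours of MG132 stress.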 The format is functional.
Assay [3] in a line: NIH3T3 cell viability loss – ATP luminescence, mouse fibroblasts, counter-screen, dose response (AID 2010).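 Further: cells exposed to compound for about 90 hours before reading.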 The format is functional, cell-based. In general terms: Counterscreens check selectivity or assay interference.
A short description of assay [4]: Trypanosoma cruzi growth suppression in host cells – NIH3T3 host cells, beta-gal luminescence, confirmation (AID 2044).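 Further: intracellular parasites grown in NIH/3T3 mouse fibroblasts as host cells; luminescent beta-galactosidase reporter signal from transgenic T. cruzi replicating inside host cells; inhibitors lower the luminescence signal.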 The format is functional, cell-based.
Assay [5] addresses FAD-linked sulfhydryl oxidase ALR (Homo sapiens, UniProt P55789). Description: ALR-catalysed DTT oxidation blockers – biochemical, H2O2 detection, luminescence, cherry-pick, dose response (AID 493248).
Assay [6] deals with T2, Corticotropin-releasing factor receptor 2/Corticotropin-releasing factor-binding protein (Homo sapiens, UniProt P24387+Q13324).
T2 sequence (Q13324 whole entry): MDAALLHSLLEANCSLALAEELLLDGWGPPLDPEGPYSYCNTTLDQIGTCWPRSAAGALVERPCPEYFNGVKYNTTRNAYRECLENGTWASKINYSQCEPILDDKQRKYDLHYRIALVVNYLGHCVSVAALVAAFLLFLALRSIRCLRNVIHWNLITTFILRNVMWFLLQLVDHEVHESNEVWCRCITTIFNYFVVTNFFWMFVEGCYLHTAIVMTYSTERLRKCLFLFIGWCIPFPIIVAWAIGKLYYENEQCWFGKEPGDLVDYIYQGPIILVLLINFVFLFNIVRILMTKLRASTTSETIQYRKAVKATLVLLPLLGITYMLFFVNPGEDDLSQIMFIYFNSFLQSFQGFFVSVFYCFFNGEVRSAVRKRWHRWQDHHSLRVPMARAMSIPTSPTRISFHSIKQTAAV
T2 sequence (P24387 whole entry): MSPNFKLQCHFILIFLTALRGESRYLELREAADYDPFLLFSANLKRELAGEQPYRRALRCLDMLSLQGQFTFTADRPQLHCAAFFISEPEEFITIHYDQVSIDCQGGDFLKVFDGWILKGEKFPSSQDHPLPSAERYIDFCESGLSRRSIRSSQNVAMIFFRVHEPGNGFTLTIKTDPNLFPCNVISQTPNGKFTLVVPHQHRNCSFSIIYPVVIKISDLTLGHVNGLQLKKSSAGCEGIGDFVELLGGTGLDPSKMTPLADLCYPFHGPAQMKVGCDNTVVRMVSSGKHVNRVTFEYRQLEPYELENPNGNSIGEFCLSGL
Description: activators of CRF receptor 2 with binding protein – uHTS hits, confirmation (AID 602473). The format is functional. Particulars: read-out: EC50_Mean.

Assay [7] concerns the target T2, Corticotropin-releasing factor receptor 2/Corticotropin-releasing factor-binding protein. Description: Dose Response confirmation of uHTS hits for small molecule antagonists of the CRF-binding protein and CRF-R2 receptor complex. The format is functional. Particulars: read-out: IC50_Mean.
The target of assay [8] is T3, RNA-binding protein pos-1 (Caenorhabditis elegans, UniProt G5EF15).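 Further: purified POS-1 fused to maltose binding protein made in E. coli; potency of compounds blocking POS-1 binding to fluorescent RNA.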
T3 sequence (G5EF15 whole entry): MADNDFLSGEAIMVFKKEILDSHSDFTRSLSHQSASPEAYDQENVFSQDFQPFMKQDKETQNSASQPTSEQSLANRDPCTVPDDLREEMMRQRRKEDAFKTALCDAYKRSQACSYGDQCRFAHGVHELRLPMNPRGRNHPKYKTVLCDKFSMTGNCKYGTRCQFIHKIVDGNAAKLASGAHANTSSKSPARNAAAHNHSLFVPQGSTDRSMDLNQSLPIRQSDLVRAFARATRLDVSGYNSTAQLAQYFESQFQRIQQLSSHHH
Description: disruptors of C. elegans POS-1 RNA interaction – biochemical, fluorescence polarization, dose response (AID 1964). (Polarisation of emitted light reports the rotation of a fluorescent probe.)

Assay [9] concerns the target T4, Zinc finger protein mex-5 (Caenorhabditis elegans, UniProt Q9XUB2).
T4 sequence (Q9XUB2 whole entry): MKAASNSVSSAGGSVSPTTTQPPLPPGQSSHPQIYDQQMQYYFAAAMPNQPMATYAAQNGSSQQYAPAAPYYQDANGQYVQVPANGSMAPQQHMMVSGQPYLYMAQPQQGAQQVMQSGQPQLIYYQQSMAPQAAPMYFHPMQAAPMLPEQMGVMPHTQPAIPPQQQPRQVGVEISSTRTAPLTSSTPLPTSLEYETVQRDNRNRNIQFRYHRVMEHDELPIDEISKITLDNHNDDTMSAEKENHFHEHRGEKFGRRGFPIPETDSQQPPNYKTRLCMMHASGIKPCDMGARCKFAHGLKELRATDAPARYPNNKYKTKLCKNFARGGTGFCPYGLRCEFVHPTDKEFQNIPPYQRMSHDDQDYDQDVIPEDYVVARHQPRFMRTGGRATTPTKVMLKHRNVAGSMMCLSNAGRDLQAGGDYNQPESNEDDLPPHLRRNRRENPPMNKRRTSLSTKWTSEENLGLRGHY
Nature of the assay: potency of MEX-5 RNA-binding blockers – biochemical, C. elegans, fluorescence polarization, dose response (AID 1960).

Sequence of FAD-linked sulfhydryl oxidase ALR (P55789 whole entry): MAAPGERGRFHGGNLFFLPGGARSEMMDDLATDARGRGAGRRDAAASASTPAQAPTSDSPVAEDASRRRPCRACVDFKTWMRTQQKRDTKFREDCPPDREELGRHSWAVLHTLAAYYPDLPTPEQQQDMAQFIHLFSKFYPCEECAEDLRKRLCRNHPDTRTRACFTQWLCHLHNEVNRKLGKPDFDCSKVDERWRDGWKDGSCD

Consider `COc1cc(NC(=O)COC(=O)c2ccc(C)c(S(=O)(=O)N3CCCCC3)c2)c(C)cc1[N+](=O)[O-]`, for which the EC50 in assay [1] is > 260 µM (inactive).

Regarding `Cc1cc(NC(=O)COC(=O)[C@H](C)NC(=O)c2ccccc2)no1`, the EC50 in assay [2] is > 195 µM (not active).

Consider `Cc1ccc(CC2SC(N=C(N)N)=NC2=O)cc1` (stereo not drawn), for which the EC50 in [1] is > 260 µM (inactive).

With `N#Cc1ccc(OCCN2CCc3ccccc3C2)cc1`, in assay [1], the EC50 is > 260 µM (inactive).

For `Cc1cccc(N2CCN(c3cccc(C)c3)C2c2cccnc2)c1`, the EC50 was 4.39 µM (active) in [3], > 260 µM (inactive) in assay [1] and 0.165 µM (active) in assay [4].

For `Cc1ccc(-c2nn(C)c(=O)c3ccccc23)cc1S(=O)(=O)NCCN(C)C`, the EC50 in assay [2] was > 195 µM (not active).

With `O=C(C1CCCO1)N1CCC2(CC1)OCCO2` (stereo not drawn), the EC50 in [2] is > 195 µM (not active).

By AC50 is commonly meant the midpoint of the concentration-response curve, whichever way the signal moves. As to `CCN(CC)S(=O)(=O)c1cccc(C(=O)N/N=C/c2cc(OC)c(O)c(OC)c2)c1`, in assay [5], the AC50 was 0.21 µM (active).

Turning to `CC(Sc1nc(-c2ccccc2)cc(C(F)(F)F)n1)C(=O)Nc1sc2c(c1C#N)CCC2` (stereo not drawn), the EC50 is > 60 µM (not active) in [3], > 260 µM (inactive) in [1] and 0.137 µM (active) in assay [4].

In the case of `COc1ccc(CC(=O)N2CCN=C2SCc2ccc([N+](=O)[O-])cc2)cc1`, the AC50 in assay [5] is < 0.005 µM (active).

With `O=C(Nc1ccccc1)C1Cc2ccccc2CN1C(=O)c1ccco1` (stereo not drawn), the AC50 in assay [5] is 12.9 µM (active).

As to `CC1=NN(c2ccccc2)C(=O)C1c1ccccc1` (stereo not drawn), the concentration at half-maximal activity (AC50) in assay [5] was 2.86 µM (active).

Turning to `O=C(NC(=S)Nc1ccc2oc(=O)ccc2c1)c1cc2ccccc2o1`, the EC50 in assay [2] is > 195 µM (not active).

On to `Cc1ccccc1NS(=O)(=O)c1cccc2nonc12`, for which, in [5], the AC50 was 8.51 µM (active).

As to `O=C(Nc1cccn(Cc2c(Cl)cccc2Cl)c1=O)c1ccccc1Cl`, the EC50 in assay [1] is > 260 µM (inactive).

For `Cc1ccc(-c2nnn[nH]2)cc1`, in [1], the EC50 was > 260 µM (inactive).

As to `O=C1N=C(c2ccccc2)C(c2ccccc2)N1` (stereo not drawn), in assay [5], the AC50 is 0.318 µM (active).

For the compound `C=CCN1C(=O)NC(=O)/C(=C(/C)NC2CCN(Cc3ccccc3)CC2)C1=O`, in [2], the EC50 is on record as > 195 µM (not active).

With `CN(C)CCNC(=O)C(=O)NCC(c1ccc2c(c1)OCO2)N1CCN(c2ccc(F)cc2)CC1` (stereo not drawn), the AC50 in assay [5] is 0.439 µM (active).

`CCC1CCCCN1C(=O)c1cc2c(=O)n3cccc(C)c3nc2s1` (stereo not drawn): the EC50 in assay [2] was > 195 µM (not active).

Regarding `CC(C)CN(CC(C)C)C(S)=NC1CCCCC1`, the EC50 in [6] is > 53 µM (inactive); in assay [2], 17 µM (active). Moreover, the IC50 in [7] was > 47.1 µM (inactive).

Consider `Cn1c(S)nnc1CCNC(=O)c1ccc(Cl)cc1`, for which, in assay [5], the concentration at half-maximal activity (AC50) was 1.54 µM (active).

As for `CN1CCC(=NNc2ccc(S(=O)(=O)N3CCOCC3)cc2[N+](=O)[O-])CC1`, the EC50 in assay [1] is > 260 µM (inactive).

On to `O=C(O)CCc1ccc(-c2cccs2)n1NC(=O)c1ccccc1Br`, for which, in [5], the AC50 was 6.95 µM (active).

As for `O=C(N/N=C/c1cccc(C(F)(F)F)c1)c1ccc(O)cc1`, in assay [2], the EC50 is on record as > 195 µM (not active).

For the compound `CN(C)C=O.COc1ccc(/C=C/c2nc3ccccc3c(=O)n2-c2cccc(C(=O)O)c2)cc1`, the EC50 in assay [2] is 22.7 µM (active).

On to `O=C(NCC1CCCO1)c1nn2c(C(F)(F)F)cc(-c3cc(Br)cs3)nc2c1Br` (stereo not drawn), for which the EC50 in assay [8] is > 300 µM (not active); in assay [9] it was > 300 µM (inconclusive); in [1] it was > 260 µM (inactive).

For the compound `NC(=O)c1nn(-c2ccccc2)nc1NC(=O)CN1CCCCC1`, in [1], the EC50 was > 260 µM (inactive).

Turning to `Cc1ccc(Nc2nc(CSc3nnnn3C)cs2)cc1`, the AC50 in [5] is 1.54 µM (active).

Take `Cc1nonc1OCCNCCNc1ccc([N+](=O)[O-])cc1Cl`: the EC50 in assay [1] was > 260 µM (inactive).
